We go through 3 molecules from ChEMBL document CHEMBL1137662, “Effect of oral treatment with hexadecyloxypropyl-[(S)-9-(3-hydroxy-2- phosphonylmethoxypropyl)adenine] [(S)-HPMPA] or octadecyloxyethyl-(S)-HPMPA on cowpox or vaccinia virus infections in mice” (Antimicrob Agents Chemother, 2007).

A short description of data set [1]: Selectivity index, ratio of CC50 for HFF cells to EC50 for Cowpox virus Brighton. The note with it: human, read-out: Ratio CC50/EC50. It is filed as toxicity, cell-based.
Data set [2] can be described thus: Selectivity index, ratio of CC50 for HFF cells to EC50 for Vaccinia virus WR. The class given is toxicity, cell-based. The note with it: human, read-out: Ratio CC50/EC50.
For data set [3], the system named is Cowpox virus. The data set is described as follows: Antiviral activity against Cowpox virus Brighton in HFF cells assessed as reduction of viral replication after 3 days. It is filed as functional, organism-based, Cowpox virus (Brighton Red). Conditions: 72 h.
Data set [4] has as its system Vaccinia virus. The data set is described as follows: Antiviral activity against Vaccinia virus WR in HFF cells assessed as reduction of viral replication after 3 days. It is filed as functional, organism-based. The note with it: Orthopoxvirus vaccinia, 72 h.
In data set [5] the test system is Vaccinia virus. The data set is described as follows: Antiviral activity against Vaccinia virus Copenhagen in HFF cells assessed as reduction of viral replication after 3 days. The note with it: Orthopoxvirus vaccinia, 72 h. The class given is functional, organism-based.
The nature of data set [6]: Selectivity index, ratio of CC50 for HFF cells to EC50 for Vaccinia virus Copenhagen. The class given is toxicity, cell-based. Conditions: human, read-out: Ratio CC50/EC50.
The nature of data set [7]: Cytotoxicity against HFF cells after 7 days. The class given is cell-based. The note with it: human.
The test system of data set [8] is Cowpox virus. Put plainly: Antiviral activity against Cowpox virus Brighton infected BALB/c mouse assessed as mortality at 10 mg/kg, ip treated for 5 days after 72 hrs of viral inoculation. It is filed as functional, Cowpox virus (Brighton Red). Conditions: route intraperitoneal.
In data set [9] the test system is Vaccinia virus. Put plainly: Antiviral activity against Vaccinia virus WR infected BALB/c mouse assessed as reduction of viral titer in lung at 30 mg/kg, po treated for 5 days after 24 hrs of viral inoculation. The class given is functional, organism-based. Set-up: dose 30 mg/kg. Conditions: Orthopoxvirus vaccinia.
Data set [10] relates to Cowpox virus. The data set is described as follows: Antiviral activity against Cowpox virus Brighton infected BALB/c mouse assessed as mean death day at 10 mg/kg, po treated for 5 days after 48 hrs of viral inoculation. The class given is functional, Cowpox virus (Brighton Red).
For data set [11], the system named is Cowpox virus. Put plainly: Antiviral activity against Cowpox virus Brighton infected BALB/c mouse assessed as mortality at 10 mg/kg, ip treated for 5 days after 48 hrs of viral inoculation. It is filed as functional, Cowpox virus (Brighton Red). Conditions: route intraperitoneal.
Data set [12] deals with Cowpox virus. Put plainly: Antiviral activity against Cowpox virus Brighton infected BALB/c mouse assessed as mortality at 10 mg/kg, ip treated for 5 days after 24 hrs of viral inoculation. The class given is functional, Cowpox virus (Brighton Red). The note with it: route intraperitoneal.
The test system of data set [13] is Vaccinia virus. Put plainly: Antiviral activity against Vaccinia virus WR infected BALB/c mouse assessed as mortality at 15 mg/kg, ip treated for 5 days after 72 hrs of viral inoculation. It is filed as functional, Orthopoxvirus vaccinia. The note with it: route intraperitoneal.
For data set [14], the system named is Vaccinia virus. The data set is described as follows: Antiviral activity against Vaccinia virus WR infected BALB/c mouse assessed as mortality at 15 mg/kg, ip treated for 5 days after 48 hrs of viral inoculation. It is filed as functional, Orthopoxvirus vaccinia. Conditions: route intraperitoneal.
The test system of data set [15] is Vaccinia virus. The data set is described as follows: Antiviral activity against Vaccinia virus WR infected BALB/c mouse assessed as mortality at 15 mg/kg, ip treated for 5 days after 24 hrs of viral inoculation. It is filed as functional, Orthopoxvirus vaccinia. The note with it: route intraperitoneal.
For data set [16], the system named is Vaccinia virus. Put plainly: Antiviral activity against Vaccinia virus WR infected BALB/c mouse assessed as mortality at 10 mg/kg, ip treated for 5 days after 72 hrs of viral inoculation. It is filed as functional, Orthopoxvirus vaccinia. Conditions: route intraperitoneal.
For data set [17], the system named is Vaccinia virus. The data set is described as follows: Antiviral activity against Vaccinia virus WR infected BALB/c mouse assessed as mortality at 10 mg/kg, ip treated for 5 days after 48 hrs of viral inoculation. It is filed as functional, Orthopoxvirus vaccinia. The note with it: route intraperitoneal.
The test system of data set [18] is Vaccinia virus. The data set is described as follows: Antiviral activity against Vaccinia virus WR infected BALB/c mouse assessed as mortality at 10 mg/kg, ip treated for 5 days after 24 hrs of viral inoculation. The class given is functional, Orthopoxvirus vaccinia. Conditions: route intraperitoneal.
Data set [19] is described as follows: Oral bioavailability in Swiss Webster mouse at 10 mg/kg. The note with it: in vivo. It is filed as ADME, organism-based.

The structures appear in SMILES notation. The source made the active and inactive calls. No cut-off for these calls is given here.

For orientation: EC50 means the concentration at which the effect is half-maximal. The term CC50 denotes the concentration at which the toxic effect on the cells reaches its halfway point. Lower therefore signals harm at low concentration. For the molecule `CCCCCCCCCCCCCCCCOCCCOP(=O)(O)CO[C@H](CO)Cn1ccc(N)nc1=O` [BRINCIDOFOVIR], the selectivity ratio stood at 52 in [1], 28 in data set [2] and 39 in data set [6]. In addition, the values for the half-maximal effective concentration (EC50) in the data set with Cowpox virus [3], in the data set with Vaccinia virus [4] and in the data set on Vaccinia virus [5] were 0.6 µM, 1.1 µM and 0.8 µM, respectively. Besides, half-maximal cytotoxicity in data set [7] (CC50 at 168 h) was put at 31 µM.
For `Nc1ccn(C[C@@H](CO)OCP(=O)(O)O)c(=O)n1.O.O` [CIDOFOVIR], the Activity in the data set with Cowpox virus [8] was 0%; in the data set on Cowpox virus [10] it was 11 days; in the data set with Cowpox virus [11], 0%; with Cowpox virus [12], 0%; with Vaccinia virus [13], 0%; in the data set on Vaccinia virus [14] it was 100%. The Activity in the data set on Vaccinia virus [15] was 0%; with Vaccinia virus [16] it was 143%; with Vaccinia virus [17], 0%; in the data set with Vaccinia virus [18], 0%. Also, the selectivity ratio in data set [1] was > 9.1; in data set [2], > 10.9; in [6] it was > 12.2. In addition, the EC50 with Cowpox virus [3] was 35 µM; with Vaccinia virus [5], 26 µM. Also, the CC50 at 168 h in data set [7] was > 317 µM. Further, in the data set on Vaccinia virus [9], the result was Active.
By bioavailability is commonly meant dose-corrected exposure relative to a reference, in per cent. Read a high bioavailability as good availability. In [19], `Nc1ncnc2c1ncn2C[C@@H](CO)OCP(=O)(O)O` showed a bioavailability of 24%. The figures for the selectivity ratio in [1], in data set [2] and in data set [6] were > 72, > 44 and > 107, respectively. The concentration giving a half-maximal response (EC50) turned out to be 4 µM with Cowpox virus [3], 6.5 µM in the data set with Vaccinia virus [4] and 2.7 µM in the data set on Vaccinia virus [5]. Also, the CC50 at 168 h in data set [7] is > 289 µM.
